Data reported in publication PMC11359831, “Stepwise Structural Simplification of the Dihydroxyanthraquinone Moiety of a Multitarget Rhein-Based Anti-Alzheimer Lead to Improve Drug Metabolism and Pharmacokinetic Properties” (Pharmaceutics, 2024).
Values after ≈ are worked out from the molar mass of the structure shown. Values joined by “and” are separate entries in the source; they are usually repeats but may differ in a detail not shown here. Equal values may be shown once.

Assays:
physchem = settings: PBS (99%) with DMSO (1%), 37 °C, aqueous buffer, kinetic from dmso stock, kinetic solubility
Experimental: The resulting solutions were incubated at 37 °C. After 2 h incubation, the samples were read using a BMG LABTECH NEPHELOstar Plus laser nephelometer (Ortenberg, Germany).

[1] = PAMPA-BBB
Experimental: The parallel artificial membrane permeability assay for the blood–brain barrier (PAMPA-BBB) [41] was used to assess the in vitro brain permeability of the new compounds. For the assay, the compounds were dissolved in mixtures of PBS and ethanol (70:30).

[2] = molecular target: T1, human recombinant BACE-1 (hBACE-1) (Homo sapiens, UniProt P56817); set-up: method as in PMID 24568372; settings: cited from earlier work
T1 construct: purchased Invitrogen, Carlsbad, CA, USA
T1 sequence (P56817 46-501): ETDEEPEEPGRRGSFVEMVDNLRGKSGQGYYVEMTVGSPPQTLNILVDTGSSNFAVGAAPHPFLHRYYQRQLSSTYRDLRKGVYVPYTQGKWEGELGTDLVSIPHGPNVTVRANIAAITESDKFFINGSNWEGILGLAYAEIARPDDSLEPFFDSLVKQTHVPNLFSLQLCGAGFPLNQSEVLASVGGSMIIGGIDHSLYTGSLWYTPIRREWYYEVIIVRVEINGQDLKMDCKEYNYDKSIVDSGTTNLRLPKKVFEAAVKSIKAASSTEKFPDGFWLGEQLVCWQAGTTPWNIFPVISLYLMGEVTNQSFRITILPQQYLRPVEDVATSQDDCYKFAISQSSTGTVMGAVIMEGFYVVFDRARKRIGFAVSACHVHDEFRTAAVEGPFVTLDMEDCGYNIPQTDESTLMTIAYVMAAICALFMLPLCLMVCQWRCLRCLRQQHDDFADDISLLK

zebrafish embryos = assay: Fish embryo acute toxicity (FET) test in zebrafish embryos; format: in vivo; settings: 72 h of exposure, lethality
Experimental: Test solutions were freshly prepared for each experiment and were renewed every 24 h. The maximum tested compound concentration was 100 µM and four additional concentrations were also prepared by applying a 1:2 dilution factor. A 1% DMSO solution was used as a vehicle control.
Six-well plates were incubated at 26 ± 1 °C under a 14:10 light:dark cycle for 72 h. To assess the potential lethality of the new compounds, we followed, every 24 h, the four parameters that are outlined in the OECD Guideline No. 236: embryo coagulation, lack of somite formation, non-detachment of the tail, and absence of a heartbeat (from 48 h onward). The percentage of lethality at each concentration that was tested for the new compounds was recorded and expressed as mean ± SEM from three or more independent experiments. […] LOAEC values were determined through an ANOVA test with Bonferroni’s post-hoc test for multiple comparisons (significance threshold: p < 0.05).

tau aggregation = molecular target: T2, tau aggregation (Homo sapiens, UniProt P10636); assay: Tau aggregation inhibition in genetically modified E. coli cells (Th-S fluorescence); format: cell-based, Escherichia coli; settings: live E. coli cells overexpressing tau; for inhibition at 10 µM: read-out: Tau Aggregation % inh. @10 µM
T2 construct: expressed in transfected cells; host or cells: E. coli BL21 (DE3) bearing pTARA and pRKT42
T2 sequence (P10636 other isoform, or with tags, fused parts or gaps): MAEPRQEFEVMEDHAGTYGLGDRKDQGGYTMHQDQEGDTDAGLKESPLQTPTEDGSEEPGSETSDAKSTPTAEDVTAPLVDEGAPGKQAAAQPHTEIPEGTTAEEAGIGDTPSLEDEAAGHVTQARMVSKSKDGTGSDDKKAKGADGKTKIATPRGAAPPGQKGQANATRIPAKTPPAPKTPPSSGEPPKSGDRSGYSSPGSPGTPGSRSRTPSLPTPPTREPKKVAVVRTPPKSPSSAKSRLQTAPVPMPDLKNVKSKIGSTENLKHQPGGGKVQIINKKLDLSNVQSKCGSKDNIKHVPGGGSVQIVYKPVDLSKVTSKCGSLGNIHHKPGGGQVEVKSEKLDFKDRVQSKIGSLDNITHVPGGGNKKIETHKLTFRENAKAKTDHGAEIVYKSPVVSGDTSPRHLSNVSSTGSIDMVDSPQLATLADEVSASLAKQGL
Experimental: For tau overexpression, M9 minimal medium (10 mL) containing glucose (0.5%), ampicillin (50 μg/mL), chloramphenicol (12.5 μg/mL), and E. coli BL21 (DE3) cells bearing the pTARA plasmid, which carries the RNA polymerase gene of the T7 phage (T7RP) under control of the PBAD promoter, and subsequent transformation with the pRKT42 vector were used instead. In this case, the overnight culture for a 1:500 dilution was added to fresh M9 minimal medium containing glucose (0.5%), chloramphenicol (12.5 μg/mL), ampicillin (50 μg/mL), and Th-S (250 µM).
For Aβ42 overexpression, the corresponding E. coli cell cultures were kept growing overnight (37 °C; 250 rpm) until they reached an OD600 = 0.6. These cultures (980 μL) were added to a mixture of 10 μL of a solution of the new compounds in DMSO and 10 μL of 100 mM isopropyl 1-thio-β-D-galactopyranoside (IPTG), to reach a final compound concentration of 10 μM. The same procedure was used for tau overexpression but employing 10 μL of 25% arabinose instead of IPTG. The resulting E. coli cultures were kept growing overnight (37 °C; 1400 rpm) using an Eppendorf Thermomixer (Hamburg, Germany). To prepare a negative control for the assay, showing the highest amount of the amyloidogenic protein, the same quantity of DMSO, without the compounds to be tested, was added to the sample. With the double purpose of obtaining positive controls devoid of the amyloidogenic proteins and assessing the potential intrinsic toxicity of the new compounds, we also prepared samples that had not been treated with either IPTG or arabinose (non-induced samples).
To assess the inhibitory activity of compounds 4–7 on Aβ42 and tau aggregation within E. coli cells, a fluorescence assay was employed, using Th-S ([…] stock solution, T1892, Sigma, St. Louis, MO, USA) in double-distilled water (Milli-Q system, Millipore, Bay City, MI, USA) and an Aminco Bowman Series 2 luminescence spectrophotometer (Aminco-Bowman AB2, SLM Aminco, Rochester, NY, USA), working at 25 °C in the wavelength range of 460–600 nm, with λex = 445 nm, slit widths of 4 nm, and λem = 485 nm. The results are given as the average of nine independent experiments, each performed in triplicate.

[3] = Plasma stability, rat plasma; format: in vitro ADME; settings: 37 °C
[4] = Plasma stability, mouse plasma; format: in vitro ADME; settings: 37 °C; for remaining at 1 h, 5 μM: read-out: Plasma Stability % Remaining Compound, mouse, 1 h; for remaining at 6 h, 5 μM: read-out: Plasma Stability % Remaining Compound, mouse, 6 h
Experimental: The plasma stability of the new compounds was tested using in human, mouse, and rat plasma (Seralab). One hundred μL of 5 μM solutions of the new compounds in plasma were plated and incubated at 37 °C for 0, 60, 120, and 360 min, and then treated with 300 μL of acetonitrile and centrifuged (4000× g; 60 min; 4 °C). Sample quantification was performed by UPLC/MS/MS analysis of the resulting supernatant using a UPLC QSM Waters Acquity apparatus, equipped with a Waters ACQUITY BEH C18 1.7 μm 2.1 × 50 mm column, eluting with 0.1% formic acid in water or in acetonitrile, with a flow of 0.6 mL/min. The gradient indicated in Table 1 was used in this assay.
Compound concentration was calculated from the MS peak areas and expressed as the percentage of remaining compound at the different tested times.

[5] = Plasma stability, mouse plasma; format: in vitro ADME; settings: 37 °C
[6] = molecular target: T3, human recombinant AChE (hAChE) (Homo sapiens, UniProt P22303); assay: biochemical; settings: for AChE vs. BChE selectivity: hBChE IC50 relative to hAChE IC50; for IC50: human recombinant AChE, Ellman method, mean ± standard error
T3 construct: purchased Sigma (Milan, Italy)
T3 sequence (P22303 32-614): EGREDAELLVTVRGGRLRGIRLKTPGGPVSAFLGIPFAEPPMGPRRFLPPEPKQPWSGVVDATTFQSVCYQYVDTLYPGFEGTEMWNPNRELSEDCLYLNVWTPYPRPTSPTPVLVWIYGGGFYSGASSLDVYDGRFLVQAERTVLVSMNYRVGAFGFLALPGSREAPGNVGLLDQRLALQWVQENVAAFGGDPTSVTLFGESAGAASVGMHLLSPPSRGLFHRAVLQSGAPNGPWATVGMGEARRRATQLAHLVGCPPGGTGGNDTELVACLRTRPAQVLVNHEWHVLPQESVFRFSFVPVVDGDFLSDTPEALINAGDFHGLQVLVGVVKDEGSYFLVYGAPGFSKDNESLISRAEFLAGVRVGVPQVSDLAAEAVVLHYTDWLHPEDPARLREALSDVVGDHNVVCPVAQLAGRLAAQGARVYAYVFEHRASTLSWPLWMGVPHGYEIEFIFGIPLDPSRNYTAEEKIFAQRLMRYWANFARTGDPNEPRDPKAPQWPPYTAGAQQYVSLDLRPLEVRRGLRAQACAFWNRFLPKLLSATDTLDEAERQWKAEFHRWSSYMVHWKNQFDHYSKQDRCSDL
Experimental: The stock and assay solutions were prepared as follows:
Stock hAChE solution: solution of the lyophilized powder in 0.1% Triton X-100/0.1 M potassium phosphate (pH 8.0).
Stock solutions of the new compounds: 1 mM solutions in methanol, with further dilutions in this solvent to the desired concentrations.

[7] = Solubility class, classification after ref 70
[8] = Solubility, 2 h, DMSO (1%)/PBS (99%)
[9] = Solubility, 2 h, PBS with 1% DMSO, nephelometry

With CC1=CC2Cc3nc4cc(Cl)ccc4c(NCCCCCCCCCNC(=O)c4cc(O)c5c(c4)C(=O)c4cccc(O)c4C5=O)c3C(C1)C2 (centres unmarked) [Compound 3] the solubility at 2 h (physchem; [7]) was < 10 µg/mL, the solubility at 2 h (physchem; [8]) was 6.3 µg/mL and the solubility at 2 h (physchem; [9]) was 8.6 µM. For the same molecule, the “BBB permeation class” value ([1]; CNS+ threshold Pe over 5.21 × 10^−6 cm/s) was “CNS+ (high BBB permeation (CNS+), with Pe (10^−6 cm/s) > 5.21)”, the “Brain Permeability Pe” value ([1]; mean ± SD) was 21.5 ± 0.7 10^−6 cm s^−1 and the “BACE-1 inhibition (in words)” value [2] was “found to inhibit BACE-1”. For the same molecule, the LOAEC (zebrafish embryos) was 100 µM, the inhibition at 10 µM (tau aggregation) was 58.2 ± 1.8% and the “% hydrolyzed in rat plasma after 6 h” value [3] was 32.1%. For the same molecule, the remaining at 1 h, 5 μM [4] was 97.2%, the remaining at 6 h, 5 μM [4] was 92.9% and the “% hydrolyzed in mouse plasma after 6 h” value [5] was 7.1%.
In the case of CC1=CC2Cc3nc4cc(Cl)ccc4c(NCCCCCCCCCNC(=O)c4ccc5c(c4)C(=O)c4ccccc4C5=O)c3C(C1)C2 (centres unmarked) [Compound 4, N-{9-[(3-Chloro-6,7,10,11-tetrahydro-9-methyl-7,11-methanocycloocta[b]quinolin-12-yl)amino]nonyl}anthraquinone-2-carboxamide], the solubility at 2 h (physchem; [7]) is reported as < 10 µg/mL, the solubility at 2 h (physchem; [8]) is reported as 5.9 µg/mL and the solubility at 2 h (physchem; [9]) is reported as 8.4 µM. The “AChE vs. BChE selectivity” value [6] was 181, the IC50 [6] was 6.91 ± 0.77 nM and the inhibition at 10 µM (tau aggregation) was 63 ± 3.5%. For the same molecule, the remaining at 1 h, 5 μM [4] was 96% and the remaining at 6 h, 5 μM [4] was 90.1%.
In the case of CC1=CC2Cc3nc4cc(Cl)ccc4c(NCCCCCCCCCNC(=O)c4ccc5c(c4)C(=O)c4ccccc4-5)c3C(C1)C2 (centres unmarked) [Compound 5, N-{9-[(3-Chloro-6,7,10,11-tetrahydro-9-methyl-7,11-methanocycloocta[b]quinolin-12-yl)amino]nonyl}-9-fluorenone-2-carboxamide], the solubility at 2 h (physchem; [7]) is reported as < 10 µg/mL, the solubility at 2 h (physchem; [8]) is reported as 5.4 µg/mL and the solubility at 2 h (physchem; [9]) is reported as 8.1 µM. For the same molecule, the “AChE vs. BChE selectivity” value [6] was 149, the IC50 [6] was 5.93 ± 0.26 nM and the inhibition at 10 µM (tau aggregation) was 68.9 ± 2.1%. For the same molecule, the remaining at 1 h, 5 μM [4] was 95.7% and the remaining at 6 h, 5 μM [4] was 90.4%.
In the case of CC1=CC2Cc3nc4cc(Cl)ccc4c(NCCCCCCCCCNC(=O)c4cccc(C(=O)c5ccccc5)c4)c3C(C1)C2 (centres unmarked) [Compound 6, 3-Benzoyl-N-{9-[(3-chloro-6,7,10,11-tetrahydro-9-methyl-7,11-methanocycloocta[b]quinolin-12-yl)amino]nonyl}benzamide], the solubility at 2 h (physchem; [7]) is reported as < 10 µg/mL, the solubility at 2 h (physchem; [8]) is reported as 8.4 µg/mL and the solubility at 2 h (physchem; [9]) is reported as 12.5 µM. The IC50 [6] was 11.6 ± 0.9 nM, the LOAEC (zebrafish embryos) was 50 µM and the inhibition at 10 µM (tau aggregation) was 62.5 ± 2.1%. For the same molecule, the remaining at 1 h, 5 μM [4] was 98.3% and the remaining at 6 h, 5 μM [4] was 76.9%.
Work on CC(=O)c1cccc(C(=O)NCCCCCCCCCNc2c3c(nc4cc(Cl)ccc24)CC2C=C(C)CC3C2)c1 (centres unmarked) [Compound 7, 3-Acetyl-N-{9-[(3-chloro-6,7,10,11-tetrahydro-9-methyl-7,11-methanocycloocta[b]quinolin-12-yl)amino]nonyl}benzamide] yielded a solubility at 2 h (physchem; [7]) of 10 to 100 µg/mL, a solubility at 2 h (physchem; [8]) of 11 µg/mL and a solubility at 2 h (physchem; [9]) of 18 µM. For the same molecule, the IC50 [6] was 6 nM and 5.97 nM, the Solubility (kinetic solubility, 37 °C, 2 h, PBS with 1% DMSO, nephelometry) was 18.1 µM (≈ 10.4 µg/mL) and the “increased aqueous solubility relative to the initial lead” value (relative to lead 3) was 2 fold. For the same molecule, the “Tau Aggregation % inh. @10 µM” value (tau aggregation) was 68.3 ± 3.1%, the inhibition at 10 µM (tau aggregation) was 68% and the “% hydrolyzed in rat plasma after 6 h” value [3] was 14.2%. For the same molecule, the remaining at 1 h, 5 μM [4] was 97.5% and the remaining at 6 h, 5 μM [4] was 96%.
